Test results reported in publication PMC10975012, “The Active Glucuronide Metabolite of the Brain Protectant IMM-H004 with Poor Blood–Brain Barrier Permeability Demonstrates a High Partition in the Rat Brain via Multiple Mechanisms” (Pharmaceutics, 2024).
Where two headings read alike, the source gives them in different places.

Tested on: P-gp
Experiment: Bidirectional transport in MDCKⅡ-MDR1 cell monolayers
Format: in vitro ADME
Details: dog
Method: To further validate the effect of P-gp on the transport of IMM-H004G or IMM-H004, MDCKⅡ-MDR1 cells were seeded onto polycarbonate membrane transwell inserts in 24-well plates and used for transport studies after 5 days or when the effective transepithelial electric resistance (TEER) values exceeded 300 Ω·cm^2. The monolayers were initially rinsed twice with HBSS. Subsequently, IMM-H004G or IMM-H004 (10 µmol/L) was added to either the apical or basolateral side of the monolayer. Aliquots of 50 µL were collected from the opposite compartment at various time points, covering a maximum duration of 120 min. Digoxin (5 μmol/L) was used as a positive substrate, while PSC833 (5 µmol/L) was used as an inhibitor in MDCKⅡ-MDR1 cells. The apparent permeability value (Papp) was calculated using the following equation:(2) Papp=dQ/dt/AC0 where dQ/dt is the slope of the cumulative transport amount over time during the study period. A is the base area of the insert, and C0 is the initial addition concentration.
The efflux ratio (ER) was calculated as follows:ER = Papp(B−A)/Papp(A−B) (3)

With `C[C@H]1O[C@@H](O[C@H]2[C@@H](O)C[C@H](O[C@H]3[C@@H](O)C[C@H](O[C@H]4CC[C@@]5(C)[C@H](CC[C@@H]6[C@@H]5C[C@@H](O)[C@]5(C)[C@@H](C7=CC(=O)OC7)CC[C@]65O)C4)O[C@@H]3C)O[C@@H]2C)C[C@H](O)[C@@H]1O` [digoxin, reference compound] the efflux ratio at 120 min (MDCK-MDR1, with PSC833 5 µmol/L, MDCKⅡ-MDR1, PSC833 5 µmol/L, read-out: efflux ratio (ER) in the presence of PSC833) was 1.41 and the efflux ratio at 120 min (MDCK-MDR1, MDCKⅡ-MDR1, no inhibitor, IMM-H004 10 µmol/L, digoxin 5 μmol/L, read-out: efflux ratio (ER)) was 21.1.
